Where two headings read alike, the source gives them in different places.
What was measured:
[1] = tested on: ISG expression; experiment: ISG expression in mesenteric lymph nodes (qRT-PCR); type: in vivo, mouse
[2] = tested on: ISG expression; experiment: ISG expression in spleen (qRT-PCR); type: in vivo, mouse
[3] = Mouse autoimmune disease model; type: in vivo; conditions: dependent on IFN-I signaling; data not shown
[4] = tested on: TLR4; type: cell-based, mouse
[5] = tested on: CD4+FOXP3+ Tregs; experiment: Human colon biopsy cLP lymphocytes, IL-10 production by CD4+FOXP3+ Tregs; type: cell-based; conditions: total cLP lymphocytes from human colon biopsies, 6-10 days
Procedure: FIG. 13. PSA induces Tregs in cells obtained from human gut tissue biopsies. Total cLP lymphocytes from 8-10 human colon biopsies were treated with PBS, WT-OMV, DPSA-OMV, or purified PSA for 6-10 days. IL-10 production by CD4+FOXP3+ Tregs was assessed by flow cytometry and intracellular cytokine staining. ** p<0.01, One-way ANOVA. Error bars represent mean +S.E.M.

[6] = tested on: Ifnb1 expression; experiment: Ifnb1 expression by lamina propria DCs (qRT-PCR); type: in vivo, mouse; conditions: WT SPF mice, 150 ug oral gavage, 1.5 hrs
Procedure: To confirm the relevance of these findings in vivo, Ifnb1 expression by colon LP DCs was analyzed in WT SPF mice administered 150 ug of PSA by oral gavage.
RNA was isolated from whole tissues or the DC^+ and DC^− fractions of spleens, mLNs, and colons following manufacturer's instructions with the RNeasy mini kit (Qiagen). cDNA was prepared with the Quantitect Reverse Transcription Kit (Qiagen). qRT-PCR was performed on a QuantStudio7 Flex or Pro Real-Time PCR system (Applied Biosystems) with RT^2 SYBR Green ROX qPCR Mastermix (Qiagen). Amplification was achieved using an initial cycle of 95° C. for 10 min, followed by 40 cycles of 95° C. for 15 s and 60° C. for 1 min. Gene expression was normalized using Actb as a reference gene. The forward (f) and reverse (r) primers used to detect expression of the corresponding murine genes were as follows (SEQ ID NOs: 1-20, respectively):
Single-cell suspensions of the indicated tissues were prepared as described. DC positive and negative fractions were isolated with mouse pan-DC microbeads (Miltenyi), following the manufacturer's protocol.
GFWT C57BL/6 mice were administered B. fragilis strain NCTC 9343 or C. ramosum strain AO31 by oral gavage [200 uL, approximately 10^8-10^9 colony-forming units (CFU) per mouse]. […]

[7] = tested on: ISG expression; experiment: ISG / BST2 expression in BMDCs (qRT-PCR, flow cytometry); type: cell-based, mouse
[8] = tested on: CD4+ T cells; type: cell-based; conditions: data not shown
[9] = tested on: Human specimens; experiment: Human specimens response to PSA; type: cell-based
[10] = tested on: VSV-GFP; type: cell-based, mouse
[11] = tested on: VSV strain Indiana; conditions: mouse, in vivo, po
[12] = tested on: IAV/PR8-GFP; type: cell-based, mouse
[13] = WT SPF mice + metronidazole 7 days (Table 3)
[14] = WT SPF mice + metronidazole 7 days (Table 4)

Cc1ncc([N+](=O)[O-])n1CCO [metronidazole]
Ifit1 mLN fold difference gene expression to WT SPF, Mean [1, 13]: 0.57 fold
Ifit2 mLN fold difference gene expression to WT SPF, Mean [1, 13]: 0.69 fold
Ifit3 mLN fold difference gene expression to WT SPF, Mean [1, 13]: 0.76 fold
Irf7 mLN fold difference gene expression to WT SPF, Mean [1, 13]: 0.68 fold
Mx1 mLN fold difference gene expression to WT SPF, Mean [1, 13]: 0.78 fold
Oas/2 mLN fold difference gene expression to WT SPF, Mean [1, 13]: 0.74 fold
Rsad2 mLN fold difference gene expression to WT SPF, Mean [1, 13]: 0.46 fold
ISG expression in mLN (panel) ([1]; WT mice vs WT SPF): significant decreases in ISG expression
Ifit1 Spleen fold difference gene expression to WT SPF, Mean [2, 14]: 0.57 fold
Ifit2 Spleen fold difference gene expression to WT SPF, Mean [2, 14]: 0.69 fold
Ifit3 Spleen fold difference gene expression to WT SPF, Mean [2, 14]: 0.76 fold
Irf7 Spleen fold difference gene expression to WT SPF, Mean [2, 14]: 0.68 fold
Mx1 Spleen fold difference gene expression to WT SPF, Mean [2, 14]: 0.78 fold
Oas/2 Spleen fold difference gene expression to WT SPF, Mean [2, 14]: 0.74 fold
Rsad2 Spleen fold difference gene expression to WT SPF, Mean [2, 14]: 0.46 fold
ISG expression in spleen (panel) ([2]; WT mice vs WT SPF): significant decreases in ISG expression

polysaccharide A [PSA]
protective effects in a mouse autoimmune disease model [3]: protective effects
IFNβ secretion by BMDCs ([4]; Myd88−/− BMDCs, 50 ug/mL, 6 hrs): significant decrease
IFNβ secretion by BMDCs ([4]; Tlr2−/− BMDCs vs WT, 50 ug/mL, 6 hrs): no effect
IFNβ secretion by BMDCs ([4]; Tlr4−/− BMDCs vs WT): completely lost the ability to secrete IFNβ
IFNβ secretion by BMDCs ([4]; Trif−/− BMDCs, 50 ug/mL, 6 hrs): lack of increased IFNβ secretion
IFNβ secretion by BMDCs ([4]; WT BMDCs): significantly induced
IFNβ secretion by BMDCs ([4]; dectin-1 deficient (Clec7a−/−) BMDCs vs WT, 50 ug/mL, 6 hrs): no effect
IL-10 production by CD4+FOXP3+ Tregs [5]: induces Tregs
Ifnb1 expression by colon LP DCs [6]: significant increase
Surface BST2 levels ([7]; Ifnar1−/− and Ifnb1−/− BMDCs vs WT): significantly reduced
expression of a panel of ISGs ([7]; WT BMDCs, 24 hrs, 50 ug/mL, vs vehicle): increase in expression
BST2 mean fluorescence intensity (MFI) ([7]; WT BMDCs, 24 hrs, 100 ug/mL, vs vehicle): increased
IL-10 secretion by CD4+ T cells [8]: enhance IL-10 secretion
response of human specimens [9]: dose-dependent manner
Protection from VSV-GFP infection [10]: completely lost
cell viability [10]: increased cell viability
percentage of infected (GFP+) cells [10]: inhibited virus infection in a dose-dependent manner
daily and cumulative paralysis scores [11]: decreased
incidence of disease [11]: decreased
survival [11]: enhanced survival
antiviral effect against IAV/PR8-GFP [12]: completely abrogated
cell viability [12]: increase in cell viability
percentage of infected cells [12]: significant reduction

lipooligosaccharide [LOS]
IFNβ secretion by BMDCs ([4]; Tlr4−/− BMDCs vs WT): through TLR4
IFNβ secretion by BMDCs ([4]; WT BMDCs): dose-dependent manner

— patent US20230372407A1, “METHODS FOR MODULATING TLR4 SIGNALING” (President and Fellows of Harvard College, priority 2020, published 2023)
